Legend:
[1] = system: bedstraw; assay: Test B pre/postemergence bedstraw; format: in vivo, Galium aparine; conditions: Postemergence
Method in brief: (§1)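 Herbicidal effect was estimated by eye on a ten-point control scale after plants spent twelve to sixteen days in a greenhouse following soil or foliar treatment. Foliar sprays targeted plants at one to four leaves; all doses were formulated in a non-phytotoxic solvent with surfactant.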

[2] = system: blackgrass; assay: Test B pre/postemergence blackgrass; format: in vivo, Alopecurus myosuroides; conditions: for Blackgrass plant response rating: Postemergence; for Plant response rating, Blackgrass: Preemergence
Method in brief: as §1

[3] = system: surinam grass; assay: Test B pre/postemergence surinam grass; format: in vivo, Brachiaria decumbens; conditions: for B. signalgrass plant response rating: Postemergence; for Plant response rating, B. signalgrass: Preemergence
Method in brief: as §1

[4] = system: cocklebur; assay: Test B pre/postemergence cocklebur; format: in vivo, Xanthium strumarium; conditions: for Cocklebur plant response rating: Postemergence; for Plant response rating, Cocklebur: Preemergence
Method in brief: as §1

[5] = system: corn; assay: Test B pre/postemergence corn; format: in vivo, Zea mays; conditions: for Corn plant response rating: Postemergence; for Plant response rating, Corn: Preemergence
Method in brief: as §1

[6] = system: crabgrass; assay: Test B pre/postemergence crabgrass; format: in vivo, Digitaria sanguinalis; conditions: for Crabgrass plant response rating: Postemergence; for Plant response rating, Crabgrass: Preemergence
Method in brief: as §1

[7] = system: giant foxtail; assay: Test B pre/postemergence giant foxtail; format: in vivo, Setaria faberii; conditions: for Giant foxtail plant response rating: Postemergence; for Plant response rating, Giant foxtail: Preemergence
Method in brief: as §1

[8] = system: morningglory; assay: Test B pre/postemergence morningglory; format: in vivo, Ipomoea hederacea; conditions: for Morningglory plant response rating: Postemergence; for Plant response rating, Morningglory: Preemergence
Method in brief: as §1

[9] = system: pigweed; assay: Test B pre/postemergence pigweed; format: in vivo, Amaranthus retroflexus; conditions: for Redroot pigweed plant response rating: Postemergence; for Plant response rating, Redroot pigweed: Preemergence
Method in brief: as §1

[10] = system: rape; assay: Test B pre/postemergence rape; format: in vivo, Brassica napus; conditions: for Rape plant response rating: Postemergence; for Plant response rating, Rape: Preemergence
Method in brief: as §1

[11] = system: soybean; assay: Test B pre/postemergence soybean; format: in vivo, Glycine max; conditions: for Soybean plant response rating: Postemergence; for Plant response rating, Soybean: Preemergence
Method in brief: as §1

[12] = system: sugar beet; assay: Test B pre/postemergence sugar beet; format: in vivo, Beta vulgaris; conditions: for Sugarbeets plant response rating: Postemergence; for Plant response rating, Sugarbeets: Preemergence
Method in brief: as §1

[13] = system: velvetleaf; assay: Test B pre/postemergence velvetleaf; format: in vivo, Abutilon theophrasti; conditions: for Velvetleaf plant response rating: Postemergence; for Plant response rating, Velvetleaf: Preemergence
Method in brief: as §1

[14] = system: wheat; assay: Test B pre/postemergence wheat; format: in vivo, Triticum aestivum; conditions: for Wheat plant response rating: Postemergence; for Plant response rating, Wheat: Preemergence
Method in brief: as §1

[15] = system: wild oat; assay: Test B pre/postemergence wild oat; format: in vivo, Avena fatua; conditions: for Wild oats plant response rating: Postemergence; for Plant response rating, Wild oats: Preemergence
Method in brief: as §1

[16] = system: purple nutsedge; assay: Test B pre/postemergence purple nutsedge; format: in vivo, Cyperus rotundus; conditions: for Nutsedge plant response rating: Postemergence; for Plant response rating, Nutsedge: Preemergence
Method in brief: as §1

[17] = system: rice; assay: Test B flood test rice; format: in vivo, Oryza sativa
Method in brief: (§2)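 Each value is a visual injury score relative to controls, with 10 meaning complete control and 0 no effect. Evaluation took place twelve to sixteen days after the 2-leaf-stage plants were treated and kept in the greenhouse.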

[18] = system: smallflower flatsedge; assay: Test B flood test smallflower flatsedge; format: in vivo, Cyperus difformis
Method in brief: as §2

[19] = system: duck salad; assay: Test B flood test duck salad; format: in vivo, Heteranthera limosa
Method in brief: as §2

[20] = system: bamyardgrass; assay: Test B flood test barnyardgrass; format: in vivo, Echinochloa crus-galli
Method in brief: as §2

[21] = Rate 125 g/ha, scale of 0 to 10 where 0 is no effect and 10 is complete control
[22] = Rate 250 g/ha, scale 0 to 10, 0 is no effect, 10 is complete control
[23] = Rate 500 g/ha, scale 0 to 10, 0 is no effect, 10 is complete control
[24] = Rate 1000 g/ha, scale 0 to 10 (0 no effect, 10 complete control)
[25] = Rate 250 g/ha, scale 0 to 10 (0 no effect, 10 complete control)
[26] = Rate 500 g/ha, scale of 0 to 10 where 0 is no effect and 10 is complete control
[27] = Pre-emergence, Rate 1000 g/ha, scale 0 to 10 (0 no effect, 10 complete control)
[28] = Rate 125 g/ha, under heading Pre-emergence, flood test species, visual evaluation after twelve to sixteen days
[29] = Rate 250 g/ha, Pre-emergence (flood test species), scale 0 to 10, 0 is no effect, 10 is complete control
[30] = Rate 500 g/ha, Pre-emergence section of Table B, 0 to 10 scale (0 no effect, 10 complete control)

COC(=O)C(CCO)n1c(=O)on(C(=O)N(c2ccc(Cl)cc2)C(C)C)c1=O (centres unmarked) [Compound 679]
Bedstraw plant response rating [1, 21]: 0
Bedstraw plant response rating [1, 22]: 0
Bedstraw plant response rating [1, 23]: 0
Blackgrass plant response rating [2, 21]: 0
Blackgrass plant response rating [2, 24]: 1
Plant response rating, Blackgrass [2, 21]: 0
Plant response rating, Blackgrass [2, 25]: 0
Plant response rating, Blackgrass [2, 26]: 0
Blackgrass plant response rating [2, 22]: 0
Blackgrass plant response rating [2, 23]: 0
Plant response rating, Blackgrass [2, 24]: 5
B. signalgrass plant response rating [3, 21]: 0
B. signalgrass plant response rating [3, 24]: 0
Plant response rating, B. signalgrass [3, 21]: 0
Plant response rating, B. signalgrass [3, 25]: 0
Plant response rating, B. signalgrass [3, 26]: 0
B. signalgrass plant response rating [3, 22]: 0
B. signalgrass plant response rating [3, 23]: 0
Plant response rating, B. signalgrass [3, 24]: 0
Cocklebur plant response rating [4, 21]: 0
Cocklebur plant response rating [4, 24]: 1
Plant response rating, Cocklebur [4, 21]: 0
Plant response rating, Cocklebur [4, 25]: 0
Plant response rating, Cocklebur [4, 26]: 0
Cocklebur plant response rating [4, 22]: 0
Cocklebur plant response rating [4, 23]: 0
Plant response rating, Cocklebur [4, 24]: 0
Corn plant response rating [5, 21]: 0
Corn plant response rating [5, 24]: 0
Plant response rating, Corn [5, 21]: 0
Plant response rating, Corn [5, 25]: 0
Plant response rating, Corn [5, 26]: 0
Corn plant response rating [5, 22]: 0
Corn plant response rating [5, 23]: 0
Plant response rating, Corn [5, 24]: 2
Crabgrass plant response rating [6, 21]: 0
Crabgrass plant response rating [6, 24]: 2
Plant response rating, Crabgrass [6, 21]: 0
Plant response rating, Crabgrass [6, 25]: 0
Plant response rating, Crabgrass [6, 26]: 1
Crabgrass plant response rating [6, 22]: 0
Plant response rating, Crabgrass [6, 24]: 3
Giant foxtail plant response rating [7, 21]: 0
Giant foxtail plant response rating [7, 24]: 5
Plant response rating, Giant foxtail [7, 21]: 0
Plant response rating, Giant foxtail [7, 26]: 8
Giant foxtail plant response rating [7, 22]: 0
Giant foxtail plant response rating [7, 23]: 4
Plant response rating, Giant foxtail [7, 24]: 8
Morningglory plant response rating [8, 21]: 0
Morningglory plant response rating [8, 24]: 2
Plant response rating, Morningglory [8, 21]: 0
Plant response rating, Morningglory [8, 26]: 0
Morningglory plant response rating [8, 22]: 0
Morningglory plant response rating [8, 23]: 2
Plant response rating, Morningglory [8, 24]: 0
Redroot pigweed plant response rating [9, 21]: 0
Redroot pigweed plant response rating [9, 24]: 2
Plant response rating, Redroot pigweed [9, 21]: 0
Plant response rating, Redroot pigweed [9, 26]: 1
Redroot pigweed plant response rating [9, 22]: 0
Redroot pigweed plant response rating [9, 23]: 0
Plant response rating, Redroot pigweed [9, 24]: 6
Rape plant response rating [10, 21]: 0
Rape plant response rating [10, 24]: 0
Plant response rating, Rape [10, 21]: 0
Plant response rating, Rape [10, 26]: 0
Rape plant response rating [10, 22]: 0
Rape plant response rating [10, 23]: 0
Plant response rating, Rape [10, 24]: 0
Soybean plant response rating [11, 21]: 0
Plant response rating, Soybean [11, 21]: 0
Plant response rating, Soybean [11, 26]: 0
Soybean plant response rating [11, 22]: 1
Soybean plant response rating [11, 23]: 1
Plant response rating, Soybean [11, 24]: 0
Sugarbeets plant response rating [12, 21]: 0
Plant response rating, Sugarbeets [12, 21]: 0
Plant response rating, Sugarbeets [12, 26]: 0
Sugarbeets plant response rating [12, 22]: 0
Sugarbeets plant response rating [12, 23]: 0
Plant response rating, Sugarbeets [12, 24]: 0
Velvetleaf plant response rating [13, 21]: 0
Plant response rating, Velvetleaf [13, 21]: 0
Plant response rating, Velvetleaf [13, 26]: 0
Velvetleaf plant response rating [13, 22]: 0
Velvetleaf plant response rating [13, 23]: 0
Plant response rating, Velvetleaf [13, 24]: 0
Wheat plant response rating [14, 21]: 0
Plant response rating, Wheat [14, 21]: 0
Plant response rating, Wheat [14, 26]: 0
Wheat plant response rating [14, 22]: 0
Wheat plant response rating [14, 23]: 0
Plant response rating, Wheat [14, 24]: 0
Wild oats plant response rating [15, 21]: 0
Plant response rating, Wild oats [15, 21]: 0
Plant response rating, Wild oats [15, 26]: 0
Wild oats plant response rating [15, 22]: 0
Wild oats plant response rating [15, 23]: 0
Plant response rating, Wild oats [15, 24]: 0
Nutsedge plant response rating [16, 21]: 0
Nutsedge plant response rating [16, 24]: 0
Plant response rating, Nutsedge [16, 21]: 0
Plant response rating, Nutsedge [16, 26]: 0
Nutsedge plant response rating [16, 22]: 0
Nutsedge plant response rating [16, 23]: 0
Rice plant response rating [17, 27]: 0
Rice plant response rating (0 to 10 scale, 0 is no effect, 10 is complete control) [17, 28]: 0
Rice plant response rating [17, 29]: 0
Rice plant response rating [17, 30]: 0
S. Flatsedge plant response rating [18, 27]: 0
S. Flatsedge plant response rating (0 to 10 scale, 0 is no effect, 10 is complete control) [18, 28]: 0
S. Flatsedge plant response rating [18, 29]: 0
S. Flatsedge plant response rating [18, 30]: 0
Ducksalad plant response rating [19, 27]: 0
Ducksalad plant response rating (0 to 10 scale, 0 is no effect, 10 is complete control) [19, 28]: 0
Ducksalad plant response rating [19, 29]: 0
Ducksalad plant response rating [19, 30]: 0
Barnyardgrass plant response rating [20, 27]: 0
Barnyardgrass plant response rating (0 to 10 scale, 0 is no effect, 10 is complete control) [20, 28]: 0
Barnyardgrass plant response rating [20, 29]: 0
Barnyardgrass plant response rating [20, 30]: 0
